Measurements published in patent EP0034481A1, “2-Methyl-5-thiazole-methylamine and carboxamide derivatives” (Grigg, Ronald Ernest, priority 1980, dated 1981).

Legend:
Diazepam cell receptor = experiment: Central nervous system activity: adhesion to specific cell receptor surfaces (diazepam cell receptor); format: binding
Procedure: Various compounds of this invention have been tested for their biological activity. Peripheral activity was determined by contraction of the guinea pig ileum/frog rectus while central nervous system activity was determined by adhesion to specific cell receptor surfaces.

[1] = Solubility in solvents (qualitative); format: physicochemical
guinea pig ileum = experiment: Peripheral activity: contraction of the guinea pig ileum, relative to nicotine; format: cell-based
Procedure: Peripheral activity was determined by contraction of the guinea pig ileum/frog rectus while central nervous system activity was determined by adhesion to specific cell receptor surfaces.

LD50 (acute toxicity) = conditions: in vivo

For `Cc1ncc(C(=O)N2CCCCC2)s1` [Example 2, 2-methyl-5-(piperidincrcarbonyl)thiazole], the “Diazepam cell receptor adhesion” value (Diazepam cell receptor) was 0.49 mM, the soluble in ethanol [1] was “soluble” and the soluble in water [1] was “soluble”.
For `Cc1ncc(CN2CCOCC2)s1` [Example 20, 2-methyl-5-(morpholinomethyl)thiazole], the “Diazepam cell receptor adhesion” value (Diazepam cell receptor) was 11 mM, the “soluble in dilute hydrochloric acid” value [1] was “soluble” and the soluble in ethanol [1] was “soluble”. The soluble in water [1] was “soluble”.
For `Cc1ncc(C(=O)NC23CC4CC(CC(C4)C2)C3)s1` [Example 7, N-adamantyl 2-methyl-5-thiazolecarboxamide], the “Guinea Pig ileum test (% wrt nicotine)” value (guinea pig ileum) was 0 % wrt nicotine, the “soluble in dilute hydrochloric acid” value [1] was “soluble” and the soluble in ethanol [1] was “soluble”. For the same molecule, the soluble in water [1] was “soluble”.
In the case of `Cc1nnc(C(=O)N2CCOCC2)o1` [Example 13, 5-methyl-2-(morpholinocarbonyl)oxadiazole], the soluble in water [1] is reported as “soluble”.
In the case of `CCN(CC)Cc1cnc(C)s1` [Example 21, 2-methyl-5-(diethylaminomethyl)thiazole], the “Diazepam cell receptor adhesion” value (Diazepam cell receptor) is reported as 5.5 mM, the soluble in ethanol [1] is reported as “soluble” and the soluble in water [1] is reported as “soluble”. For the same molecule, the LD50 (LD50 (acute toxicity)) was 80 to 100 mg/kg.
In the case of `Cc1nnc(C(=O)N2CCCCC2)o1` [Example 11, 2-methyl-5-(piperidinocarbonyl)oxadiazole], the soluble in water [1] is reported as “soluble”.
In the case of `c1ccc(-c2ncc(CN3CCCC3)s2)cc1` [Example 17, 2-phenyl-5-(pyrroli-dinomethyl)thiazole], the “soluble in dilute hydrochloric acid” value [1] is reported as “soluble” and the soluble in ethanol [1] is reported as “soluble”.
With `Cc1ncc(CN2CCCCC2)s1` [Example 19, 2-methyl-S-(piperidinomethyl)thiazole] the “Diazepam cell receptor adhesion” value (Diazepam cell receptor) was 1.0 mM, the soluble in ethanol [1] was “soluble” and the soluble in water [1] was “soluble”. It also gave an LD50 (LD50 (acute toxicity)) of 7 to 8 mg/kg.
In the case of `c1ccc(-c2ncc(CN3CCCCC3)s2)cc1` [Example 24, 2-phenyl-(5-piperidinomethyl)thiazole], the “soluble in dilute hydrochloric acid” value [1] is reported as “soluble” and the soluble in ethanol [1] is reported as “soluble”.
With `Cc1ncc(C(=O)N2CCN(C(=O)c3cnc(C)s3)CC2)s1` [Example 5, N,N'-bis(2-methyl-5-thiazolecarbonyl)piperazine] the soluble in chloroform ([1]; chloroform) was “soluble” and the “soluble in polyethylene glycol” value ([1]; polyethylene glycol) was “soluble”.
For `Cc1ncc(C(=O)N2CCOCC2)s1` [Example 3, 2-methyl-S-(morpholinocarbonyl)thiazole], the “Diazepam cell receptor adhesion” value (Diazepam cell receptor) was 1.0 mM, the “soluble in dilute hydrochloric acid” value [1] was “soluble” and the soluble in ethanol [1] was “soluble”. For the same molecule, the soluble in water [1] was “soluble”.
In the case of `Cc1ncc(CN2CCCC2)s1` [Example 18, 2-methyl-5-(pyrrolidinomethyl)thiazole], the “Diazepam cell receptor adhesion” value (Diazepam cell receptor) is reported as 4.4 mM, the soluble in ethanol [1] is reported as “soluble” and the soluble in water [1] is reported as “soluble”. For the same molecule, the LD50 (LD50 (acute toxicity)) was 7 to 8 mg/kg.
With `Cc1ncc(C(=O)N2CCCC2)s1` [Example 1, 2-Methyl-5-(pyrrolidinocarbonyl)thiazole] the “Diazepam cell receptor adhesion” value (Diazepam cell receptor) was 0.55 mM, the soluble in ethanol [1] was “soluble” and the soluble in water [1] was “soluble”.
For `CCN(CC)C(=O)c1cnc(C)s1` [Example 6, N,N-diethyl 2-methyl-5-thiazolecarboxamide], the “Diazepam cell receptor adhesion” value (Diazepam cell receptor) was 3.2 mM, the soluble in ethanol [1] was “soluble” and the soluble in water [1] was “soluble”.
For `Cc1nnc(C(=O)N2CCCC2)o1` [Example 12, 5-methyl-2-(pyrrolidinocarbonyl)oxadiazole], the soluble in water [1] was “soluble”.
